# Measured values as given in patent publication US20210161837A1, “METHODS FOR TREATING CANCER WITH RORGAMMA INHIBITORS” (The Regents of the University of California, priority 2016, published 2021).
# How the values were obtained:
# CRPC cells = assay: Growth inhibition of CRPC cells compared with enzalutamide; assay type: cell-based, human
# Procedure: Data shown are mean percentage of apoptotic cells±s.d. […] Data shown are mean±s.d. Significance was calculated using Student's t-test. *p<0.05, **p<0.01.
# (§1) (a&b) C4-2B and 22Rv1 cell proliferation after the RORγ antagonist treatment. Cells were seeded in 6-well plates and counted after cells were treated with indicated concentrations of RORγ antagonists for 0, 2, 4 and 6 days by Coulter counter. […] (e) representative images of TUNEL positive cells treated with vehicle or the antagonist (5 μM) in 22Rv1 cells are shown. […] Three days later, cells were harvested for immunoblotting with indicated antibodies.
# (§2) LNCaP, C4-2B, 22Rv, PC-3, and PC346C prostate cancer cells were cultured in RPMI1640, VCaP, HEK293T and human fibroblast IMR90 cells were in DMEM, LAPC-4 was in Iscove's MEM (all from Corning), and RWPE-1 and PZ-HPV-7 were in Keratinocyte Serum Free Medium (K-SFM) (Invitrogen) with the supplements. All the culture media except for RWPE-1 and PZ-HPV-7 were supplemented with 10% FBS (Hyclone) except indicated otherwise. For experiments, C4-2B cells were cultured in RPMI supplemented with 9% cds-FBS plus 1% regular FBS (to mimic the CRPC condition) unless indicated otherwise and 22Rv1 cells were cultured in RPMI supplemented with 10% cds-FBS. Cells were grown at 37° C. in 5% CO2 incubators. LNCaP, VCaP, 22Rv1, PC-3, 293T, IMR90, PZ-HPV-7 and RWPE-1 were from ATCC. […]
# [1] = system: SUM159 orthotopic xenograft tumors; assay: TNBC SUM159 orthotopic xenograft tumor growth in SCID mice; assay type: in vivo, mouse; conditions: 5 mg/kg, i.p., 5 times per week, 45 days
# Procedure: Orthotopic xenograft tumor models and chemical compound treatments: Four-week-old female SCID C.B17 mice (for TNBC SUM159 cell lines) were purchased from Harlan Inc. For establishing tumors, 2×10^6 cells were suspended in total of 100 μL PBS/Matrigel (1:1) and implanted orthotopically into the 4th inguinal mammary fat pads at both sides. Animal group size of six or more was estimated to have a high statistical power, based on power calculation (www.biomath.info/pgwer/) and 20 previous studies involving the same xenograft models. When the tumor volume was approximately 50 mm^3, the mice were randomized and then treated intraperitoneally (i.p.) with 100 μl of vehicle or RORγ inhibitors F18/No. 37, 5 mg/kg; GSK805, 5 mg/kg; GNE3500, 5 mg/kg. (in a formulation of 15% Cremophor EL, Calbiochem, 82.5% PBS, and 2.5% DMSO) for five times per week. Tumor growth was monitored by calipers with volume calculated using the equation: π/6 (length×width^2). Mouse body weight during the course of the study was also monitored. At the end of the studies, mice were killed and tumors were dissected and weighed.
# [2] = system: OVCAR420, T24, ECC1, T98G, SUDHL4, SUDHL6, HCT116 and docetaxel-resistant C4-2B cells; assay: Cell viability (CellTiter-GLO), 4 days, further cancer types; assay type: cell-based; conditions: Homo sapiens, 96 h, ovarian, bladder, endometrial, glioblastoma, DLBCL, colon
# LNCaP cells = assay: Cell viability (CellTiter-GLO), 4 days; assay type: cell-based; conditions: Homo sapiens, read-out: inhibitory potency (growth inhibition)
# Procedure: as §1
# LNCaP, C4-2B, 22Rv, PC-3, and PC346C prostate cancer cells were cultured in RPMI1640, VCaP, HEK293T and human fibroblast IMR90 cells were in DMEM, LAPC-4 was in Iscove's MEM (all from Corning), and RWPE-1 and PZ-HPV-7 were in Keratinocyte Serum Free Medium (K-SFM) (Invitrogen) with the supplements. All the culture media except for RWPE-1 and PZ-HPV-7 were supplemented with 10% FBS (Hyclone) except indicated otherwise. […]
# For cell viability, cells were seeded in 96-well plates at 1500-2500 cells per well (optimum density for growth, depending on the specific cell line) in a total volume of 100 μl media. […] After 4 days of incubation, Cell-Titer GLO reagents (Promega) were added and luminescence was measured on GLOMAX microplate luminometer (Promega), according to the manufacturer's instructions. […] The estimated in vitro IC50 values were calculated using GraphPad Prism 6 software.
# AR expression = assay: Immunoblotting of AR expression in 22Rv1, LAPC4 and PC346C cells; assay type: cell-based, human; conditions: 22Rv1, LAPC4, PC346C cells, 72 hours
# Procedure: Total RNA was isolated from cells in 6-well or 10-cm plates or from xenograft tumors, and the cDNA was prepared, amplified and measured in the presence of SYBR as described in Yang, P., et al., Molecular and cellular biology 32, 3121-3131 (2012). Briefly, the fluorescent values were collected and a melting curve analysis was performed. Fold difference was calculated as described previously Yang, P., et al. (see, id). The experiments were performed at least three times with data presented as mean values±s.d. Cell lysates were analyzed by immunoblotting with antibodies specifically recognizing RORγ, AR, AR-V7 and the indicated proteins.
# [3] = system: prostate cancer C4-2B cells; assay: Cell viability (Cell-Titer GLO), 4 days, prostate cancer cells; assay type: cell-based, human
# Procedure: The “No.” label for each compound corresponds to the “Structure No.” in Table 2 (e.g., “No. 36”=“Structure No. 36” in Table 2). Experiments were independently performed three times.
# (§3) For cell viability, cells were seeded in 96-well plates at 1500-2500 cells per well (optimum density for growth, depending on the specific cell line) in a total volume of 100 μl media. Serially diluted compounds in 100 μl of media were added to the cells 12 hours later. After 4 days of incubation, Cell-Titer GLO reagents (Promega) were added and luminescence was measured on GLOMAX microplate luminometer (Promega), according to the manufacturer's instructions. All experimental points were set up as sextuplicate as biological replication and the entire experiments were repeated three times. The data are presented as percentage of viable cells with vehicle treated cells set as 100. The estimated in vitro IC50 values were calculated using GraphPad Prism 6 software.
# [4] = system: AR-positive PCa cell models including 22Rv1, VCaP, LNCaP, LAPC4 and PC346C; assay: Growth inhibition in other AR-positive PCa cell models; assay type: cell-based, human
# Procedure: as §1
# as §2, with “ATCC. C4-2B was from UroCor Inc. (Oklahoma City, Okla.).” for “ATCC.”
# C4-2B xenografts = assay: C4-2B xenograft tumor growth; assay type: in vivo, mouse; conditions: 20 mg/kg, i.p., 5 times a week, 21-24 days
# MCF-7-TamR = assay: Growth and survival of tamoxifen-resistant breast cancer cells; assay type: cell-based, human
# HCC70 cells = assay: Cell viability (CellTiter-GLO), 4 days, TNBC cells; assay type: cell-based, human
# Procedure: The “No.” label for each compound corresponds to the “Structure No.” in Table 2 (e.g., “No. 36”=“Structure No. 36” in Table 2). The cell viability curves were measured by CellTiter-GLO.
# as §3, with “growth)” for “growth, depending on the specific cell line)”
smiles,measurement,setting,value
"O=C(Cc1ccccc1[N+](=O)[O-])Nc1ccc(-c2ccc(C(O)(C(F)(F)F)C(F)(F)F)cc2F)cc1 [XY018, N-(2′-fluoro-4′-(1,1,1,3,3,3-hexafluoro-2-hydroxypropan-2-yl)-[1,1′-biphenyl]-4-yl)-2-(2-nitrophenyl)acetamide]","growth inhibition, potency relative to enzalutamide",CRPC cells,strong growth inhibition with much higher potencies than that of enzalutamide
same,orthotopic tumor growth inhibition,[1],effectively inhibited the orthotopic TNBC tumor growth
same,IC50,[2],< 3500 nM
same,IC50,LNCaP cells,2100 nM
same,AR expression,AR expression,potent does dependent XY018 inhibition of AR expression
same,inhibition of growth and survival,[3],strongly inhibited the growth and survival
same,growth inhibition,[4],strong growth inhibition
same,tumor growth inhibition,C4-2B xenografts,strong tumor growth inhibition
same,growth inhibitory effect of tamoxifen in combination with XY018,"MCF-7-TamR; MCF-7-TamR, tamoxifen plus XY018",synergistic growth inhibitory effect
same,inhibition of growth and survival,"MCF-7-TamR; tamoxifen-resistant MCF-7-TamR, XY018 alone",potently inhibiting the growth and survival
same,inhibition of growth and survival,HCC70 cells,strongly inhibited the growth and survival
